# Results: paper PMC6226472, “Cardol triene inhibits dengue infectivity by targeting kl loops and preventing envelope fusion” (Scientific Reports, 2018)
# What was measured:
# [1] = system: normal human lung fibroblast cell line, GM07492A; parameters: method as in PMID 27934289; settings: read-out: cytotoxicity value (CC50); cited from earlier work
# DENV1 (16007) = assay: Efficacy (EC50) in infected Vero cells; assay type: cell-based; settings: Dengue virus
# [2] = Cytotoxic concentration (CC50); assay type: cell-based; settings: human
# Protocol: Next, the compound mixture were further purified and synthesized into saturated (C15:0), monoene (C15:1), diene (C15:2), and triene (C15:3) as described in materials and methods. Toxicities were analyzed and results were calculated to percent viability and CC50 were analyzed using non-linear regression curve (Table 1). […] Cardanol triene was insoluble in DMSO, therefore the compound was excluded from this study. It could be inferred that the polyunsaturated hydrocarbon may involve in stabilizing the cell membrane. […] Moreover, we further explored the CC50 of cardol triene in other cell lines to verify its protective effect. Three human-derived cell lines (THP-1, HEK-293, and HepG2) were used to co-incubate with cardol triene and cardol mixture (73% diene and 27% triene).
# (§1) Cytotoxic concentrations (CC50) were also studied using Vero cells. Briefly, the 10^4 cells were seeded into each well of 96-well plates. After an overnight incubation, phenolic lipids were serially diluted in DMSO to the final concentrations as follows; 25, 50, 100, 200, 300, 400, and 500 µM. Each concentration was performed in quadruplicates. DMSO at 1% was used as a mock treatment referring to 100% cell viability. Cells were incubated for 48 h before cell viability was accessed using CellTiler 96® Aqueous One Solution Cell Proliferation Assay kit (Promega, Wisconsin, USA). Non-linear regression analysis was used to determine cytotoxic concentrations (CC50) of each experiment. Results were derived from three independent experiments and reported as means and standard error of the means (SEM).
# DENV2 [3] = assay: Time of drug addition study (TOA); assay type: cell-based, Dengue virus; settings: 10 and 20 µM, added 0-48 h after infection, 72 h incubation
# Protocol: Time of drug addition assay is a standard method to primarily identify the possible target of a newly characterized compound[20]. Based on the previous efficacy results, cardol triene was chosen as a representative of all CNSL-derived phenolic lipids. Cardol triene was prepared in DMSO and added to the final concentrations of 10 µM and 20 µM to DENV2 infected Vero cells (M.O.I. of 0.1). The compound was added to the cells at different time-points. DMSO alone was added to the infected cells as a mock treatment. After 72 h incubation, cell lysates and supernatants were collected for analysis of intracellular RNAs and infectious virions by RT-qPCR and plaque titration, respectively.
# Vero (5 × 10^4) cells were seeded into each well of 24-well plates. cells were infected with DENV2 (M.O.I. of 0.1) after an overnight incubation[44],[45]. Cardol triene (C15:3) at 10 and 20 µM were added to the cells during (0 h) and after infections at early time-points as follows; 1, 2, 4, 6, 8, 10, 12, 24, 36, and 48 h. Moreover, late time-points after were also accessed at 12, 14, 16, 18, 20, 22, 24, 36, 48, 60, and 72 h after infections. DMSO alone was added to the infected cells at respective time-points as a mock treatment referring to 100% infectivities. […] Data were calculated, assembled, and reported as percent intracellular RNAs and infectious virions under the drug treatment at designated time-points.
# DENV2 [4] = assay: Fusion inhibition study in C6/36 cells; assay type: cell-based, Dengue virus; settings: 10 µM, C6/36, M.O.I. of 1, 48 h, MES
# Protocol: Fusion inhibition study[25]–[27] of DENV and ZIKV were used to confirm the findings. Briefly, cardol triene at 10 µM was added to DENV2 or ZIKV (Fig. 6C-D) infected C6/36 cells at the M.O.I. of 1 for 48 h before inducing acidic condition by MES. The 4G2 antibody was used as a positive control inhibiting both DENV2 and ZIKV fusion. […] Therefore, we concluded that one of the targets of cardol triene, and other CNSL-derived phenolic lipids, was the kl loops of DENV E protein, thus preventing the conformational change of DENV dimer to trimer that was required to initiate pH-dependent fusion.
# C6/36 (2 × 10^5) cells were seeded into 24-well plates before infection with DENV2 and ZIKV (M.O.I. of 1) as described. Cardol triene at 10 µM were introduced to the DENV2 and ZIKV infected cells during and after infection. […] Cells were incubate at 28 °C for 2 days before addition of 0.5 M 2-(N-morpholino) ethanesulfonic acid (MES) (pH 5.0) (Sigma Aldrich, St Louis, USA). Moreover, cells from selected wells subsequently underwent DAPI staining. Cell-cell fusion was observed under brightfield and fluorescence using an Eclipse TS100 Inverted Routine Microscope (Nikon, New York, USA).
# [5] = Cytotoxic concentration (CC50), MTS; assay type: cell-based; settings: African green monkey, Vero cells
# Protocol: as §1, with “experiment.” for “experiment. Results were derived from three independent experiments and reported as means and standard error of the means (SEM).”
# DENV2 NGC = assay: Efficacy study (EC50) in DENV2 infected Vero cells, plaque titration; assay type: cell-based, Dengue virus
# Protocol: Next, we studied the efficacies (EC50) of the phenolic lipid homologues against DENV2 infectivity in Vero cells. Briefly, compounds at 10 different concentrations were added to DENV2-infected Vero cells (M.O.I. of 0.1) during and post infection and the viral inhibition was determined by plaque titration. […] Noted that anacardic acids were major components of CNSL extracts and all homologues were purified directly from CNSL itself.
# Next, each homologue was analyzed for effective concentration (EC50). Vero (5 × 10^4) cells were seeded, and infected with DENV2 (M.O.I. of 0.1) as previously described. Phenolic lipid mixtures and homologues were serially diluted in DMSO to the final concentrations as follows; 0, 0.5, 1, 1.5, 2, 2.5, 5, 7.5, 10, 25, and 50 µM. DMSO at the concentration of 1% was used as a mock treatment referring to 100% infection. Infected cells were treated with the designated compounds during and post infection. Supernatants were collected at 3 days after infection for analysis of virion production by plaque titration. Non-linear regression analysis was used to determine the effective concentrations. […] The therapeutic index (TI) was a ration of CC50/EC50 of the compound.
structure (smiles),measurement,setting,value
"C=CC/C=C/C/C=C/CCCCCCCc1cc(O)cc(O)c1 [Cardol triene, 5-[8(Z), 11(Z), 14-pentadecatrienyl]resorcinol]",CC50,[1],193 ± 6 µM
same,EC50,DENV1 (16007),5.35 ± 1.16 µM
same,CC50,[2]; THP-1 cells,148 ± 3.78 µM
same,CC50,[2]; HEK-293 cells,92.8 ± 3.93 µM
same,CC50,[2]; HepG2 cells,140 ± 8.44 µM
same,intracellular RNAs and infectious virions by time of drug addition,DENV2 [3],decreased immediately at 1 h and persisted until 48 h after infections
same,DENV2 pH-dependent cell fusion,DENV2 [4],exclusively inhibited dengue fusion
same,CC50 at 48 h,[5],207 ± 5.24 µM
same,EC50,"DENV2 NGC; Dengue virus, 72 h, DENV2 NGC (M.O.I. of 0.1) infected Vero cells, plaque titration, 3 days, read-out: EC50",7.13 ± 0.72 µM
same,"TI (therapeutic index, CC50/EC50)",DENV2 NGC; Vero CC50 / DENV2 EC50,29.07
